{"source": "patent US8258256B2", "about": "“Compositions and methods for the treatment of cancer” (The Johns Hopkins University, priority 2006, dated 2012)", "key": {"[1]": {"test_system": "PSMA-positive (LNCaP, CWR22R) human prostate cancer cells", "test": "Fluorescent peptide binding to PSMA-positive prostate cancer cells (confocal microscopy)", "assay_type": "cell-based", "method": "FIG. 5 depicts dimeric […] (SEQ ID NO:1) peptide binds selectively to PSMA-producing prostate cancer cells. Attached PSMA-positive (LNCaP, CWR22R) and PSMA-negative (PC-3, DU145) human prostate cancer were prelabeled with Orange Cell Tracker (Invitrogen) at 2.5 μM in RPMI for 30 mins. After washing with Hanks balanced salt solution, cells were incubated with FITC-labeled monomeric (50 μM) or dimeric (5 μM) […] (SEQ ID NO:1) peptide in 1% fetal calf serum containing media for 1 hr. Cells were washed 3 times with PBS and fixed with 1% Formalin for ½ hr at room temperature. Cells were visualized using Zeiss Meta 510 confocal microscope at 20× magnification. Top panels show orange cell tracker labeled cells (rhodamine filter set); middle panels show labeled peptide binding (FITC filter set); bottom panel show overlay of both panels.\nBinding of […] (SEQ ID NO:1) peptides to PSMA-expressing cell lines—To analyze peptide binding to membrane bound PSMA, fluorescently labeled peptides were synthesized by coupling FITC to the C-terminus of either the monomeric or dimeric peptide. […] In contrast, cell binding of the dimeric […] (SEQ ID NO:1) peptide could be easily visualized at concentrations as low as 5 μM, FIG. 5. Labeled, dimeric peptide bound to a similar degree to both CWR22R and LNCAP."}, "His-PSMA [2]": {"biological_target": "T1, His-PSMA (Homo sapiens, UniProt Q04609)", "T1 construct": "made in house; host or cells: Drosophila Schneider's S2 cells, vector pMT/BiP/V5-HisA (pMT-His-PSMA), purified from conditioned media on Ni-NTA", "T1 sequence (Q04609 44-750 limits assumed)": "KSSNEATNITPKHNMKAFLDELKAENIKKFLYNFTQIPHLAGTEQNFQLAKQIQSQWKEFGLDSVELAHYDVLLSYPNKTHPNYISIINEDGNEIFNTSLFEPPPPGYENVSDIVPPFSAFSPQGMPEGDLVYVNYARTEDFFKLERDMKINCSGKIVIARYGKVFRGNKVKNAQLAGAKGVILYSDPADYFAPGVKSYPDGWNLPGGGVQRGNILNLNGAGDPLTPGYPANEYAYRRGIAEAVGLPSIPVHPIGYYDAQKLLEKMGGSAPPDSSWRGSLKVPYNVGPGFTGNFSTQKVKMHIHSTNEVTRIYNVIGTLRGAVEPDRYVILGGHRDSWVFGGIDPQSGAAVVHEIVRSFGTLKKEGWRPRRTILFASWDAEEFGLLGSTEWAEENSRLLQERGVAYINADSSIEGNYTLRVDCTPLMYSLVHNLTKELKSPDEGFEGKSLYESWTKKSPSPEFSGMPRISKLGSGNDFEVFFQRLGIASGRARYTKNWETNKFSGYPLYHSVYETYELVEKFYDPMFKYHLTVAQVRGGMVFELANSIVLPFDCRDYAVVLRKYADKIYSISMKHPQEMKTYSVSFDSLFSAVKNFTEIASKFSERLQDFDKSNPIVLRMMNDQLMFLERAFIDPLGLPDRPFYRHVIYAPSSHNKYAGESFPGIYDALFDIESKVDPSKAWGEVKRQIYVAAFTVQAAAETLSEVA", "details": "substrate hydrolysis by PSMA, reference (21); cited from earlier work"}, "His-PSMA [3]": {"biological_target": "T1, His-PSMA", "test": "PSMA enzymatic assay (NAALADase activity, 3H-NAAG hydrolysis)", "assay_type": "biochemical", "details": "ratio of inhibitory potency, dimeric vs monomeric peptide", "method": "FIG. 4 depicts the inhibition of NAALADase activity of PSMA by monomeric and dimeric peptides. His-PSMA hydrolysis of ^3H-NAAG was assayed as described in the methods in the absence or presence of indicated concentration of monomeric or dimeric peptide. After 15 min incubation at 37° C. amount of released 3H-Glu was determined. Percent inhibition is the ratio of amount of 3H-Glu released in presence of peptide compared to control (i.e. His-PSMA only). Data plotted are average of duplicate experiments and best fit line is included.\n(§1) PSMA Enzymatic Assay The enzymatic activity assay for PSMA was adapted as previously described by Tiffany et al. (21). PSMA (5 nM) incubated with or without peptides was added to PSMA assay buffer (10 mM CoCl2, 50 mM Tris, pH 7.4). Following a 30 mins incubation at 37° C., N-acetyl-aspartyl-3H glutamate (3H-NAAG) (NEN, Boston, Mass.) was added to final concentration of 25 nM and reactions incubated for 15 mins at 37° C. Data were collected during linear phase of hydrolysis (i.e. less than 20% cleavage of total substrate)."}, "[4]": {"biological_target": "T2, full length membrane bound form of PSMA (Homo sapiens, UniProt Q04609)", "T2 construct": "endogenous in cells; host or cells: LNCaP cell lysate", "T2 sequence (Q04609 whole entry)": "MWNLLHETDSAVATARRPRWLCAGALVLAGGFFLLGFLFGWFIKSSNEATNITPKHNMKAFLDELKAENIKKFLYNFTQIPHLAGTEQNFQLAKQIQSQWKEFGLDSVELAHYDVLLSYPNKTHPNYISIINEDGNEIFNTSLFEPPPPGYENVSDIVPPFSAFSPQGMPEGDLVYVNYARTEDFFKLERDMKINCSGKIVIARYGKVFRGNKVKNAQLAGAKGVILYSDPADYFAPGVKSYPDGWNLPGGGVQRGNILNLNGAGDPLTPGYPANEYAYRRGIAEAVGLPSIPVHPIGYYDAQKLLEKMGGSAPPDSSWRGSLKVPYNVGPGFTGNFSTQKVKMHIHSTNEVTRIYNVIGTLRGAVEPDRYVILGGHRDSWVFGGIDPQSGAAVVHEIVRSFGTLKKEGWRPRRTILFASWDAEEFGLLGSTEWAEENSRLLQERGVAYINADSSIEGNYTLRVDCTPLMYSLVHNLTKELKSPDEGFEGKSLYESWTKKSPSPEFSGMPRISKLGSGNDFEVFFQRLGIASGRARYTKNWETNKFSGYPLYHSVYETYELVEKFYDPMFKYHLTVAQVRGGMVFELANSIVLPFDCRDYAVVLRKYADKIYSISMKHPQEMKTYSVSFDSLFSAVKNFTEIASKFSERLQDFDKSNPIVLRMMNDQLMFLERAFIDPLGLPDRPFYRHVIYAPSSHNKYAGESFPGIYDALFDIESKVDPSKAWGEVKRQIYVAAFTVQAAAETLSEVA", "test": "NAAG hydrolysis assay with cell lysates from PSMA-producing LNCaP", "assay_type": "biochemical", "details": "peptide at 60 μM", "method": "as §1\n[…] (SEQ ID NO:1) peptide inhibits PSMA's enzyme activity—Functionally, PSMA has been classified as a glutamate carboxypeptidase II (25) with activity as both an N-acetylated α-linked acidic dipeptidase (NAALADase) (26) and as a pteroyl poly-γ-glutamyl carboxypeptidase (i.e. folate hydrolase) (27). […] Therefore, the monomeric and dimeric […] (SEQ ID NO:1) peptides were incubated initially with PSMA for 30 mins and then ^3H NAAG substrate was added to prevent any NAAG hydrolysis before the peptide is able to bind to PSMA. Control peptides included the […] (SEQ ID NO: 22) peptide and a short peptide HHWA (SEQ ID NO: 26) containing the apparent consensus motif from the phage display. […] In a second experiment, cell lysates from PSMA-producing LNCaP were used instead of purified recombinant His-PSMA."}, "PSMA": {"biological_target": "T3, PSMA (Homo sapiens, UniProt Q04609)", "T3 construct": "made in house; host or cells: Drosophila Schneider's S2 cells, vector pMT/BiP/V5-HisA (pMT-His-PSMA), purified from conditioned media on Ni-NTA", "T3 sequence (Q04609 44-750 limits assumed)": "as the sequence (Q04609 44-750 limits assumed) above", "test": "Soluble biotinylated peptide binding to immobilized PSMA or BSA", "details": "biotinylated peptide incubated with immobilized PSMA (0.625 μgs) or BSA", "method": "FIGS. 3A-B depict (A) Soluble […] (Biotin) (SEQ ID NO: 37) peptide binding to BSA and PSMA. Recombinant PSMA (0.625 μgs) and BSA (25 μgs/ml) were immobilized and indicated concentrations of the biotinylated […] (SEQ ID NO:1) peptide were incubated with immobilized PSMA or BSA. […] (B) Comparison of PSMA binding to monomeric (SEQ ID NO: 37) and dimeric (core peptide disclosed as SEQ ID NO: 1) form of the […] (SEQ ID NO:1) peptide. Biotin labeled monomeric and dimeric peptide were immobilized on streptavidin-coated plates then incubated with His-PSMA (100 nM). Results are the mean binding in 4 replicate wells each ±S.D.\nSoluble Synthetic […] (SEQ ID NO:1) peptide binds selectively to PSMA—On the basis of the phage binding results, the […] (SEQ ID NO:1) peptide was synthesized with biotin coupled to the C-terminus."}}, "note": "Bridge positions count the residues as written; N and C are the ends. Primed or numbered codes have the meaning given here. Ends that are not written are not given here. Peptide text beside a SMILES is read from it. I, II: the chains in the order shown. * marks the point of attachment. Biotin = O=C1N[C@H]2[C@H](CS[C@H]2CCCCC(=O)*)N1; FITC′ = fluorescein isothiocyanate label"}
{"molecule": "FITC-labeled monomeric WQPDTAHHWATL peptide: fluorescently labeled peptide made by coupling FITC to the C-terminus of the monomeric peptide (WQPDTAHHWATL-{FITC′})", "values": [{"measurement": "cell binding above background autofluorescence", "setting": "[1]; FITC-labeled peptide at 1, 5, 10, 50 μM", "value": "could not be observed at any of the tested concentrations"}, {"measurement": "peptide concentration at which cell binding could be visualized", "setting": "[1]; FITC-labeled peptide tested at 1, 5, 10, 50 μM, 1% fetal bovine serum media, 1 hr", "value": "> 50", "unit": "µM"}]}
{"molecule": "CC(=O)N[C@@H](CC(=O)O)C(=O)N[C@@H](CCC(=O)O)C(=O)O", "note": "[^3H NAAG, N-acetyl-aspartyl-3H glutamate] (Ac-Asp-Glu-OH)", "values": [{"measurement": "Km", "setting": "His-PSMA [2]", "value": 430, "unit": "nM"}, {"measurement": "kcat for PSMA", "setting": "His-PSMA [2]", "value": 0.6, "unit": "s⁻¹"}]}
{"molecule": "CC(C)C[C@H](NC(=O)[C@@H](NC(=O)[C@H](C)NC(=O)[C@H](Cc1c[nH]c2ccccc12)NC(=O)[C@H](Cc1c[nH]cn1)NC(=O)[C@H](Cc1c[nH]cn1)NC(=O)[C@H](C)NC(=O)[C@@H](NC(=O)[C@H](CC(=O)O)NC(=O)[C@@H]1CCCN1C(=O)[C@H](CCC(N)=O)NC(=O)[C@@H](N)Cc1c[nH]c2ccccc12)[C@@H](C)O)[C@@H](C)O)C(=O)NCCCC[C@H](NC(=O)[C@H](CC(C)C)NC(=O)[C@@H](NC(=O)[C@H](C)NC(=O)[C@H](Cc1c[nH]c2ccccc12)NC(=O)[C@H](Cc1c[nH]cn1)NC(=O)[C@H](Cc1c[nH]cn1)NC(=O)[C@H](C)NC(=O)[C@@H](NC(=O)[C@H](CC(=O)O)NC(=O)[C@@H]1CCCN1C(=O)[C@H](CCC(N)=O)NC(=O)[C@@H](N)Cc1c[nH]c2ccccc12)[C@@H](C)O)[C@@H](C)O)C(=O)N[C@@H](CCCCNC(=O)CCCC[C@@H]1SC[C@@H]2NC(=O)N[C@@H]21)C(=O)O", "note": "(I: H-WQPDTAHHWATLKK(Biotin)-OH / II: H-WQPDTAHHWATL; amide I:13-II:C; N-terminus assumed)", "values": [{"measurement": "PSMA inhibition of dimer relative to monomer", "setting": "His-PSMA [3]", "value": "~10", "unit": "fold"}]}
{"molecule": "WQPDTAHHWATL-OH", "values": [{"measurement": "inhibition of PSMA in LNCaP cell lysates", "setting": "[4]", "value": "inhibited"}]}
{"molecule": "WQPDTAHHWATLK(Biotin)", "values": [{"measurement": "binding to immobilized PSMA compared to BSA", "setting": "PSMA", "value": "significantly higher binding to PSMA at peptide concentrations of 50 μM and 500 μM"}]}
{"molecule": "QMARIPKRLARHK-biotin [reference compound]", "values": [{"measurement": "binding to immobilized PSMA compared to BSA", "setting": "PSMA", "value": "no specific binding to immobilized PSMA compared to BSA"}]}
